Assay results from PubChem BioAssay (NCI).
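Five compound concentrations were applied to cells in 96-well plates for 48 hours; endpoints were derived by simple linear interpolation of the resulting dose-response curve. GI50 is the concentration that inhibits growth by half. TGI is the concentration that stops growth completely.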

Key:
Experiment in all cases: NCI anticancer screen, dose series, 48 h; in the data active means GI50 below about 0.43 µM; inactive means the rest
[1] = tested on: 786-0 renal
[2] = tested on: A498 renal
[3] = tested on: A549 NSCLC
[4] = tested on: ACHN renal
[5] = tested on: BT-549 breast
[6] = tested on: CAKI-1 renal
[7] = tested on: CCRF-CEM leukemia
[8] = tested on: COLO 205 colon
[9] = tested on: DU-145 prostate
[10] = tested on: EKVX NSCLC
[11] = tested on: HCC-2998 colon
[12] = tested on: HCT-116 colon
[13] = tested on: HCT-15 colon
[14] = tested on: HL-60(TB) leukemia
[15] = tested on: HOP-62 NSCLC
[16] = tested on: HOP-92 NSCLC
[17] = tested on: HS 578T breast
[18] = tested on: HT29 colon
[19] = tested on: IGROV1 ovarian
[20] = tested on: K-562 leukemia
[21] = tested on: KM12 colon
[22] = tested on: LOX IMVI melanoma
[23] = tested on: M14 melanoma
[24] = tested on: MALME-3M melanoma
[25] = tested on: MCF7 breast
[26] = tested on: MDA-MB-231 breast
[27] = tested on: MDA-MB-435
[28] = tested on: MDA-MB-468 breast
[29] = tested on: MOLT-4 leukemia
[30] = tested on: NCI-H226 lung
[31] = tested on: NCI-H23 lung
[32] = tested on: NCI-H460 lung
[33] = tested on: NCI-H522 lung
[34] = tested on: OVCAR-3 ovarian
[35] = tested on: OVCAR-4 ovarian
[36] = tested on: OVCAR-5 ovarian
[37] = tested on: OVCAR-8 ovarian
[38] = tested on: PC-3 prostate
[39] = tested on: RPMI-8226 leukemia
[40] = tested on: RXF 393 renal
[41] = tested on: SF-268 CNS
[42] = tested on: SF-295 CNS
[43] = tested on: SF-539 CNS
[44] = tested on: SK-MEL-2 melanoma
[45] = tested on: SK-MEL-28 melanoma
[46] = tested on: SK-MEL-5 melanoma
[47] = tested on: SK-OV-3 ovarian
[48] = tested on: SN12C renal
[49] = tested on: SNB-19 CNS
[50] = tested on: SNB-75 CNS
[51] = tested on: SR leukemia
[52] = tested on: SW-620 colon
[53] = tested on: T-47D breast
[54] = tested on: TK-10 renal
[55] = tested on: U251 CNS
[56] = tested on: UACC-257 melanoma
[57] = tested on: UACC-62 melanoma
[58] = tested on: UO-31 renal

O=C(/C=C/c1cccc(OCc2ccc(F)cc2)c1)c1nc2ccccc2[nH]1
29 µM: TGI [58]
10.8 µM: TGI [39]
95.7 µM: TGI [17]
83.6 µM: TGI [23]
32.3 µM: TGI [28]
inactive: GI50 [1] 18.5 µM | GI50 [2] > 100 µM | GI50 [3] 65.1 µM | GI50 [4] 47 µM | GI50 [5] 18.4 µM | GI50 [6] 24.5 µM | GI50 [7] 10.9 µM | GI50 [8] 39.8 µM | GI50 [9] 29.5 µM | GI50 [10] 41.3 µM | GI50 [11] 15.5 µM | GI50 [12] 11.9 µM | GI50 [13] 13 µM | GI50 [14] 19.5 µM | GI50 [15] 41.5 µM | GI50 [16] 8.64 µM | GI50 [17] 25.9 µM | GI50 [18] 18.4 µM | GI50 [19] 21.9 µM | GI50 [20] 8.34 µM | GI50 [21] 13.5 µM | GI50 [22] 11.4 µM | GI50 [23] 25.5 µM | GI50 [24] 69.4 µM | GI50 [25] 4.52 µM | GI50 [26] 18.4 µM | GI50 [27] 21.2 µM | GI50 [28] 15 µM | GI50 [29] 21.9 µM | GI50 [30] 51 µM | GI50 [31] 20.5 µM | GI50 [32] 34.8 µM | GI50 [33] 27.5 µM | GI50 [34] 13.4 µM | GI50 [35] 66.5 µM | GI50 [36] 29.3 µM | GI50 [37] 34.4 µM | GI50 [38] 27.1 µM | GI50 [39] 3.09 µM | GI50 [40] 15 µM | GI50 [41] 37.7 µM | GI50 [42] 32.7 µM | GI50 [43] 17.6 µM | GI50 [44] 81.3 µM | GI50 [45] 21.9 µM | GI50 [46] 31.7 µM | GI50 [47] > 100 µM | GI50 [48] 62.9 µM | GI50 [49] 25.3 µM | GI50 [50] 34.2 µM | GI50 [51] 4.68 µM | GI50 [52] 12.2 µM | GI50 [53] 29.2 µM | GI50 [54] 35.1 µM | GI50 [55] 13.5 µM | GI50 [56] 66.2 µM | GI50 [57] 18.7 µM | GI50 [58] 13.4 µM
37.6 µM: TGI [34]
59.9 µM: TGI [27]
47.8 µM: TGI [26]
67.5 µM: TGI [16]
57.1 µM: TGI [31]
65.9 µM: TGI [21]
30 µM: TGI [11]
25.4 µM: TGI [22]
31.2 µM: TGI [40]
28.6 µM: TGI [13]
32.5 µM: TGI [25]
45.9 µM: TGI [1]
66.6 µM: TGI [19]
46.4 µM: TGI [5]
> 100 µM: TGI [2] | TGI [3] | TGI [4] | TGI [6] | TGI [7] | TGI [8] | TGI [9] | TGI [10] | TGI [15] | TGI [24] | TGI [29] | TGI [30] | TGI [32] | TGI [33] | TGI [35] | TGI [36] | TGI [37] | TGI [38] | TGI [41] | TGI [42] | TGI [44] | TGI [46] | TGI [47] | TGI [48] | TGI [49] | TGI [50] | TGI [51] | TGI [53] | TGI [54] | TGI [56] | TGI [57]
61.2 µM: TGI [45]
62.4 µM: TGI [14]
32.2 µM: TGI [43]
31.4 µM: TGI [12]
40.1 µM: TGI [18]
78.8 µM: TGI [20]
35.7 µM: TGI [55]
34.3 µM: TGI [52]
